Where “and” joins values, the source holds several entries; their conditions need not be identical. Identical values can stand only once.
Target: T1, Aβ (1-40) peptide (Homo sapiens, UniProt P05067)
T1 construct: 10 μL 0.5 mg/mL Aβ (1-40) peptide in 20% HFIP
Assay: BAPA (Beta-Amyloid Peptide Aggregation, pH 6.0, filtration)
Type: biochemical
Conditions: Aβ (1-40) 33 μM, pH 6.0, 2 to 4 hours at room temperature; replicate values; letter = synthetic lot
Description: Each 96-well plate can therefore accommodate 11 samples+1 Congo Red control (0.039-5 μM final in 2-fold steps). • 4) Seal the plate with aluminum film and incubate for 10 minutes on ice. • 5) Raise the temperature to 37° C. and incubate for 3 to 5 hours (depends on the lot of the peptide). • 6) Remove the aluminum film and add 250 μL/well of 5 μM thioflavin T (ThT) [T-3516, Sigma-Aldrich] in 50 mM glycine-NaOH, pH 8.5. […] The purpose of this assays is to provide a higher volume method of assaying the amount of beta amyloid aggregation using an endpoint assay based on filtration. In this assay, hexafluoroisopropanol (HFIP) is used to break down the initial amyloid peptide to a monomer state and use a concentration of 33 μM which is high enough so that aggregation will occur at pH 6.0 in several hours. Methods: […] Then, we incubate for 2 to 4 hours at room temperature. […] We wash the filter plate with 100 μL of the same phosphate buffer. Aggregation was detected on a Microbeta counter after impregnating the filters with Meltilex (1450-441) and is corrected for background.

T1 sequence (P05067 672-711 limits assumed): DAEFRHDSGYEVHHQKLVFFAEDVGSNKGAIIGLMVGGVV

SMILES | IC50 [µM]
O=C(O)c1ccccc1Nc1ccc(CCc2ccc(Cl)c(Cl)c2)cc1 [Example 118, 2-{4-[2-(3,4-Dichloro-phenyl)-ethyl]-phenylamino}-benzoic acid monopotassium] | > 60

Target: T2, Aβ (1-42) (Homo sapiens, UniProt P05067)
T2 construct: Required Aβ (1-42) (California Peptide) was dried from its hexafluoroisopropanol (HFIP) stock solution; purchased California Peptide
Assay: BATYM assay (Aβ (1-42) aggregation, Thioflavin T fluorescence)
Type: biochemical
Conditions: Aβ 1-42 final concentration 100 μM, 37° C., 1 day, letter = synthetic lot
Description: Required Aβ (1-42) (California Peptide) was dried from its hexafluoroisopropanol (HFIP) stock solution. The Aβ (1-42) was dissolved in dimethylsulfoxide (DMSO) and then mixed with phosphate buffered saline (PBS) (pH 7.4). The mixed Aβ (1-42) solution was filtered with a 0.2 μm Omnipore membrane syringe filter Millipore, Bedford, Mass.). The compound to be tested in DMSO (50 times concentrate) was put into each well (0.5 μL/well) of a 96-well plate. The Aβ (1-42) solution was added into each well (24.5 μL/well). The plate was centrifuged at 1,000 g for 5 minutes and incubated at 37° C. for 1 day (Aβ 1-42; final concentration 100 μM).
After incubation Thioflavin T (ThT) (30 μM) solution in glycine-NaOH buffer (pH 8.5, 50 mM) was added into each well (250 μL/well), fluorescence was measured (ex=440/20 nm, em=485/20 nm) using a fluorescence plate reader. The inhibitory activity was calculated as the reduction of fluorescence with the following formula: Inhibition (%)={(F(Aβ)−F(Aβ+compound)}/{F(Aβ)−[…]}×100
The IC50s were calculated by a curve fitting program using the following equation. The data were obtained from two different experiments in triplicate.
x=Concentration of tested compound (M),

T2 sequence (P05067 672-713 limits assumed): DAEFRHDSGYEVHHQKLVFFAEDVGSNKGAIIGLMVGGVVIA

SMILES | IC50 [µM]
O=C(O)c1cc([N+](=O)[O-])c(-n2ccnc2)cc1Nc1ccc(CCCc2ccc(Cl)c(Cl)c2)cc1 [Example 8] | 7.17
CCCNc1cccc(CCCc2ccc(Nc3ccccc3C(=O)O)cc2)c1 [Example 52, 2-{4-[3-(3-Propylaminophenyl)propyl]phenylamino}benzoic acid] | 36.5
O=C(O)c1ccccc1Nc1cccc(CCc2ccc(Cl)cc2)c1 [Example 154, 2-{3-[2-(4-Chlorophenyl)ethyl]phenylamino}-benzoic acid] | 70.8
O=C(O)c1ccccc1Nc1ccc(CCCc2ccc(N3CCCCC3)cc2)cc1 [Example 47, 2-{4-[3-(4-Piperidin-1-ylphenyl)propyl]phenylamino}benzoic acid] | 38.2
O=C(O)c1cc(C(F)(F)F)ccc1Nc1ccc(CCc2ccc(Cl)c(Cl)c2)cc1 [Example 143, 2-{4-[2-(3,4-Dichlorophenyl)-ethyl]-phenylamino}-5-trifuoromethyl-benzoic acid] | > 100
CCN(CC)c1ccc(CCCc2cccc(Nc3ccccc3C(=O)O)c2)cc1 [Example 156, 2-{3-[3-(4-Diethylaminophenyl)propyl]phenylamino}-benzoic acid] | 27.8
CCCN(CCC)c1ccc(CCCc2cccc(Nc3ccccc3C(=O)O)c2)cc1 [Example 157, 2-{3-[3-(4-Di-n-propylaminophenyl)propyl]phenylamino}-benzoic acid] | 25.9
CN(c1ccc(CCc2ccc(Cl)c(Cl)c2)cc1)c1ccccc1C(=O)O [Example 148, 2-({4-[2-(3,4-Dichloro-phenyl)-ethyl]-phenyl}-methyl-amino)-benzoic acid] | > 100
CCCNc1ccc(CCCc2ccc(Nc3ccccc3C(=O)O)cc2)cc1 [Example 51, 2-{4-[3-(4-Propylaminophenyl)propyl]phenylamino}benzoic acid] | 39.1
O=C(O)c1ccccc1Nc1cccc(CCCc2ccc(Cl)c(Cl)c2)c1 [Example 155, 2-{3-[3-(3,4-Dichlorophenyl)propyl]phenylamino}-benzoic acid] | 44.6

Target: T3, Aβ(1-40) (Homo sapiens, UniProt P05067)
T3 construct: […]; purchased Bachem, Torrance, Calif
Assay: BASST (Beta-Amyloid Self-Seeding, Thioflavin T), inhibitors of self-seeded amyloid fibril growth
Type: biochemical
Conditions: 30 μM soluble Aβ(1-40), 37° C., 3 to 5 hours, thioflavin T fluorescence; replicate values; letter = synthetic lot; read-out: BASST (IC50 = μM)
Description: (§1) An assay for inhibitors of self-seeded amyloid fibril growth
Assay Buffer—50 mM sodium phosphate, pH 7.5, 100 mM NaCl, 0.02% NaN3, 1 M urea (filter and store at 4° C.)
(§2) Typically, the solution should be stored until no lag phase is seen in the assay.
The following are the amounts of the components of the reaction mixture that result in each of the 50 assay wells:
• 1) Prepare the reaction mix above by mixing the components and storing on ice. • 2) Pipet 14.5 μL of reaction mixture into each of 50 wells of a polystyrene U-bottom 96-well microtiter plate (Corning 25881-96) on ice. • 3) Add 1.7 μL of diluted compound to be tested to each well in a column of eight, including solvent control. Serial 3-fold dilutions from 1 mM (100 μM final) in assay buffer−urea=7 dilutions+zero. Each 96-well plate can therefore accommodate 11 samples+1 Congo Red control (0.039-5 μM final in 2-fold steps). • 4) Seal the plate with aluminum film and incubate for 10 minutes on ice. • 5) Raise the temperature to 37° C. and incubate for 3 to 5 hours (depends on the lot of the peptide). • 6) Remove the aluminum film and add 250 μL/well of 5 μM thioflavin T (ThT) [T-3516, Sigma-Aldrich] in 50 mM glycine-NaOH, pH 8.5. Read fluorescence on a plate reader (ex=440 nm/20 nm; em=485 nm/20 nm) within 5 minutes. BAPA (Beta-Amyloid Peptide Aggregation)

T3 sequence (P05067 672-711 limits assumed): as the sequence (P05067 672-711 limits assumed) above

SMILES | IC50 [µM]
CCCNc1cccc(CCCc2ccc(Nc3ccccc3C(=O)O)cc2)c1 [Example 52, 2-{4-[3-(3-Propylaminophenyl)propyl]phenylamino}benzoic acid] | 0.5
O=C(O)c1ccccc1Nc1ccc(CCCc2ccc(N3CCCCC3)cc2)cc1 [Example 47, 2-{4-[3-(4-Piperidin-1-ylphenyl)propyl]phenylamino}benzoic acid] | 2
O=C(O)c1ccccc1Nc1ccc(CCc2ccc(Cl)c(Cl)c2)cc1 [Example 118, 2-{4-[2-(3,4-Dichloro-phenyl)-ethyl]-phenylamino}-benzoic acid monopotassium] | 6
CCCNc1ccc(CCCc2ccc(Nc3ccccc3C(=O)O)cc2)cc1 [Example 51, 2-{4-[3-(4-Propylaminophenyl)propyl]phenylamino}benzoic acid] | 0.8
O=C(O)c1ccccc1Nc1cccc(CCCc2ccc(Cl)c(Cl)c2)c1 [Example 155, 2-{3-[3-(3,4-Dichlorophenyl)propyl]phenylamino}-benzoic acid] | 3

Same assay, conditions: read-out: BASST (IC50 = μM)

SMILES | IC50
O=C(O)c1cc(C(F)(F)F)ccc1Nc1ccc(CCc2ccc(Cl)c(Cl)c2)cc1 [Example 143, 2-{4-[2-(3,4-Dichlorophenyl)-ethyl]-phenylamino}-5-trifuoromethyl-benzoic acid] | 40 µM and 30 µM

Target: T3, Aβ(1-40)
Assay: BASSR (Beta-Amyloid Self-Seeding Radioassay), inhibitors of self-seeded amyloid fibril growth
Type: biochemical
Conditions: not given
Description: BASSR (Beta-Amyloid Self-Seeding Radioassay)
as §1
Assay Buffer—50 mM sodium phosphate, pH 7.5, 100 mM NaCl, 0.02% NaN3, 1 M urea (filter and store at 4° C.).
as §2
^125I-labeled Aβ(1-40)—150K-350K cpm/μL in 100% acetonitrile—0.1% trifluoroacetic acid (TFA)—1% β-mercaptoethanol (aliquots stored at −20° C.). ^125I-labeled Aβ(1-40) can be made in accordance with the procedure set forth by H. LeVine, III in Neurobiol. Aging, 16, 755, (1995), which is hereby incorporated by reference, or this reagent may be purchased from Amersham, Arlington Heights, Ill.
The following are the amounts of the components of the reaction mixture sufficient for 50 assay wells:
• 1) Prepare reaction mixture above by mixing components and storing on ice. • 2) Pipet 14.5 μL of reaction mixture into each of 50 wells on a polypropylene U-bottom 96-well microtiter plate on ice. (Costar 3794). • 3) Add 1.7 μL of diluted compound to be tested to each well in a column of eight, including solvent control. Serial 3-fold dilutions from 1 mM (100 μM final) in assay buffer−urea=7 dilutions+zero. Each 96-well plate can therefore accommodate 11 samples+1 Congo Red control (0.039-5 μM final in 2-fold steps). • 4) Seal the plate with aluminum film (Beckman 538619) and incubate for 10 minutes on ice. • 5) Raise the temperature to 37° C. and incubate for 3 to 5 hours (depending on the lot of the peptide). • 6) Remove the aluminum film and add 200 μL/well of ice cold assay buffer with urea, collecting the radiolabeled fibrils by vacuum filtration through 0.2 μm pore size GVWP filters in 96-well plates (Millipore MAGV N22, Bedford, Mass.). Determine the radioactivity of the filters using standard methods well-known to those skilled in the art. BASST (Beta-Amyloid Self-Seeding, Thioflavin T)

SMILES | IC50 [µM]
O=C(O)c1cc(C(F)(F)F)ccc1Nc1ccc(CCc2ccc(Cl)c(Cl)c2)cc1 [Example 143, 2-{4-[2-(3,4-Dichlorophenyl)-ethyl]-phenylamino}-5-trifuoromethyl-benzoic acid] | > 100

Same assay, conditions: 30 μM soluble Aβ(1-40) + 125I-labeled Aβ(1-40), 37° C., 3 to 5 hours; replicate values; letter = synthetic lot; ppt = precipitate; V-shaped = inhibition followed by precipitation

SMILES | IC50
O=C(O)c1cc([N+](=O)[O-])c(-n2ccnc2)cc1Nc1ccc(CCCc2ccc(Cl)c(Cl)c2)cc1 [Example 8] | 15 µM (3×) and 18 µM
CCCNc1cccc(CCCc2ccc(Nc3ccccc3C(=O)O)cc2)c1 [Example 52, 2-{4-[3-(3-Propylaminophenyl)propyl]phenylamino}benzoic acid] | 75 µM
O=C(O)c1ccccc1Nc1cccc(CCc2ccc(Cl)cc2)c1 [Example 154, 2-{3-[2-(4-Chlorophenyl)ethyl]phenylamino}-benzoic acid] | > 100 µM
O=C(O)c1ccccc1Nc1ccc(CCCc2ccc(N3CCCCC3)cc2)cc1 [Example 47, 2-{4-[3-(4-Piperidin-1-ylphenyl)propyl]phenylamino}benzoic acid] | > 100 µM
CN(c1ccc(CCc2ccc(Cl)c(Cl)c2)cc1)c1ccccc1C(=O)O [Example 148, 2-({4-[2-(3,4-Dichloro-phenyl)-ethyl]-phenyl}-methyl-amino)-benzoic acid] | > 100 µM
O=C(O)c1ccccc1Nc1ccc(CCc2ccc(Cl)c(Cl)c2)cc1 [Example 118, 2-{4-[2-(3,4-Dichloro-phenyl)-ethyl]-phenylamino}-benzoic acid monopotassium] | > 100 µM
CCCNc1ccc(CCCc2ccc(Nc3ccccc3C(=O)O)cc2)cc1 [Example 51, 2-{4-[3-(4-Propylaminophenyl)propyl]phenylamino}benzoic acid] | 85 µM
O=C(O)c1ccccc1Nc1cccc(CCCc2ccc(Cl)c(Cl)c2)c1 [Example 155, 2-{3-[3-(3,4-Dichlorophenyl)propyl]phenylamino}-benzoic acid] | > 100 µM

— patent US6972287B1, “Method of inhibiting amyloid protein aggregation and imaging amyloid deposits” (Pfizer Inc., priority 1999, dated 2005)
